Here are results for 4 compounds from ChEMBL document CHEMBL4312004, “From bench to counter: Discovery and validation of a peony extract as tyrosinase inhibiting cosmeceutical” (Eur J Med Chem, 2019).

Activity calls are given as the source filed them. No cut-off for these calls is given here.

Series [1] deals with B16-F10. Kind of series: Antimelanogenic activity against C57BL/6 mouse B16F10 cells incubated for 10 to 50 uM incubated for 24 hrs. Format: functional.
The target in another series is T1, Tyrosinase (Agaricus bisporus, UniProt O42713).
T1 sequence (O42713 whole entry): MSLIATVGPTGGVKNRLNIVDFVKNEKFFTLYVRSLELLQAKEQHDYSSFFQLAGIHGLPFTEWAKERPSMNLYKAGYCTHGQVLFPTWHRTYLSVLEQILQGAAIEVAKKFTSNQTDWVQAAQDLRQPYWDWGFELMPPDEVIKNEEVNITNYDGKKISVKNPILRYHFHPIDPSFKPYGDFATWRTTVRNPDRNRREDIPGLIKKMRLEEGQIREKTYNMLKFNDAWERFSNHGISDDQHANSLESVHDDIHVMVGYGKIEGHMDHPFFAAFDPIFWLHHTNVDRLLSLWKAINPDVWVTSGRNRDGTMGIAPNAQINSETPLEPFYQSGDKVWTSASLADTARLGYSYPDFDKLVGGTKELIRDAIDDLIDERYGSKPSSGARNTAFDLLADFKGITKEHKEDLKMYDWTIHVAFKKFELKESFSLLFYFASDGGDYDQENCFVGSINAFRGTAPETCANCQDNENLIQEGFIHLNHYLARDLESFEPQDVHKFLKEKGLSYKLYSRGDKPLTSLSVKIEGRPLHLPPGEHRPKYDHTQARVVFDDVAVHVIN
Nature of the series: Inhibition of mushroom tyrosinase using L-dopa as substrate preincubated for 10 mins followed by substrate addition and measured for 5 mins by photometric analysis.

Series [2] relates to B16-F10. Kind of series: Antimelanogenic activity against C57BL/6 mouse B16F10 cells at 50 uM incubated for 72 hrs relative to control. Format: functional.
Series [3] is described as follows: Stability of compound in IMDM cell medium incubated for 24 hrs by HPLC analysis. Type of series: physicochemical.
Series [4] concerns B16-F10. Nature of the series: Antimelanogenic activity against C57BL/6 mouse B16F10 cells at 10 uM incubated for 72 hrs relative to control. Format: functional.
For series [5], the system named is B16-F10. Kind of series: Cytotoxicity against C57BL/6 mouse B16F10 cells assessed as reduction in cell viability incubated for 72 hrs by SRB assay relative to control. Format: cell-based. Particulars: b16-f10, 72 h. In general terms: In SRB staining, fixed cells bind dye roughly in proportion to their protein.
The test system of series [6] is B16-F10. Nature of the series: Antimelanogenic activity against C57BL/6 mouse B16F10 cells incubated for 72 hrs. Type of series: functional, cell-based.
Series [7] concerns the target T2, Tyrosinase (Agaricus bisporus) (UniProt O42713).
T2 sequence (whole entry): T1 sequence (O42713 whole entry)
Kind of series: Ratio of IC50 for arbutin to IC50 for test compound for inhibition of mushroom tyrosinase.

Series [8] is described as follows: Drug degradation in IMDM cell medium incubated for 24 hrs by HPLC analysis. Format: physicochemical. Particulars: read-out: Drug degradation.
A short description of series [9]: Stability of compound in DMSO at 10 mM incubated for 24 hrs by HPLC analysis. The conditions noted are these: 10000 µM. Type of series: physicochemical.
The test system of series [10] is B16-F10. Nature of the series: Cytotoxicity against C57BL/6 mouse B16F10 cells assessed as increase in cell shrinking at 50 uM incubated for 48 hrs by microscopic method. Type of series: cell-based. Particulars: b16-f10, 48 h.
Series [11] has as its system B16-F10. Nature of the series: Cytotoxicity against C57BL/6 mouse B16F10 cells assessed as increase in membrane blebbing at 50 uM incubated for 48 hrs by microscopic method. Format: cell-based. Particulars: b16-f10, 48 h.

For `OC[C@H]1O[C@@H](Oc2ccc(O)cc2)[C@H](O)[C@@H](O)[C@@H]1O`, the result in the series with B16-F10 [1] was inactive.

`OC[C@H]1O[C@@H](Oc2ccc(/C=C/c3cc(O)cc(O)c3)cc2)[C@H](O)[C@@H](O)[C@@H]1O` [GOB C] displayed an IC50 against Tyrosinase of 19 µM. Besides, the Activity is 65% in the series with B16-F10 [2]; 50% in the series on B16-F10 [4]; 25% in the series with B16-F10 [1]; “Non-Toxic” in the series on B16-F10 [5]; “Dose-dependent effect” in the series on B16-F10 [6]. The figures for the Stability result in series [3] and in series [9] were “Unstable” and “Stable”, respectively. Further, in [7], the Ratio IC50 was determined as 73. In addition, the degraded at 24 h in series [8] worked out at 30%.

As to `OC[C@H]1O[C@@H](Oc2cc(O)cc(/C=C/c3ccc(O)cc3)c2)[C@H](O)[C@@H](O)[C@@H]1O` [PICEID], the Stability result in [3] and in [9] was “Stable” in each case. Further, the result with B16-F10 [1] was inactive.

Take `Oc1ccc(/C=C/c2cc(O)cc(O)c2)cc1` [RESVERATROL]: the Activity entry is “Toxic” with B16-F10 [10]; 65% in the series with B16-F10 [2]; 50% in the series with B16-F10 [4]; 25% with B16-F10 [1]; 70% in the series on B16-F10 [5]; “Dose-dependent effect” in the series with B16-F10 [6]. In addition, the Activity entry with B16-F10 [11] is reported as “Toxic”. The Stability result in series [3] and in [9] was “Stable” in each case.

For orientation: IC50 means the concentration needed to halve the response being measured. Read a high IC50 as lower potency.
